In patent US9393225B2, “Melanoma chemoprevention” (University of Pittsburgh—Of the Commonwealth System of …, priority 2012, dated 2016):
Where two headings read alike, the source gives them in different places.

Experiments:
[1] = system: SK-MEL 31 cells; conditions: 20 μM SFN, 24 hours, p<0.05
[2] = system: SK-MEL 31 cells; conditions: 24 hours
Description: (§1) Apoptosis induction in SFN-treated SK-MEL 31 cells was assessed by (i) quantification of cytoplasmic histone associated DNA fragments, (ii) Western blot analysis for PARP cleavage and (iii) DAPI dye for nuclear morphology assay. For quantification of cytoplasmic histone-associated DNA fraction, SK-MEL 31 cells were seeded at 4×10^3 cells/well in 96-well plate and allowed to attach overnight. […] After 24 hours, the floating and attached cells were pelleted and lysed with lysis buffer supplied with the cell death detection ELISA kit, lysates were assayed for apoptosis according to the manual. SK-MEL 31 cells were seeded at 1×10^4 cells/well on a round glass coverslip in 12 well plates. Cells were then incubated for 24 hours with 0, 10, or 20 μM SFN, attached cells were fixed with 3% paraformaldehyde in PBS, permeabilized with 1% TRITON® X-100, stained with DAPI dye and inspected under a fluorescent microscope after stained with DAPI.

[3] = system: Smac and cytochrome c; conditions: SFN incubation; significant increases after 8 hours
Description: (§2) Cell lysate was cleared by centrifugation at 16000 rpm for 15 min. Lysate proteins were resolved by SDS-PAGE gel electrophoresis and transferred onto nitrocellulose membrane. The membrane was immersed into a phosphate buffered saline (PBS) solution containing 0.2% TWEEN® 20 and 5% (w/v) non-fat dry milk, and then incubated with desired primary antibody for 1 hour at room temperature. After incubation with appropriate secondary antibody, the immunoreactive bands were visualized using enhanced chemiluminescence method. The conjugated horseradish peroxidase (HRP) secondary antibody was deactivated with sodium azide, then membranes were re-probed with anti-actin antibody to standardize protein loading. For cytochrome c and Smac/DIABLO, the cytosolic fractions were prepared with the PROTEOEXTRACT™ Subcellular Proteome Extraction kit according to the manufacturer's instructions and Western blot analysis were performed as described above.

[4] = system: cIAP1 and XIAP; conditions: SFN treatment, with time increasing
Description: as §2

[5] = system: Bax and Bak; conditions: 20 μM SFN
Description: as §2

[6] = system: procaspase-9, procaspase-8 and procaspase-3; conditions: 20 μM SFN, 24 hour time point
Description: as §2

[7] = system: Bcl-2; conditions: 20 μM SFN, all time points
Description: as §2

[8] = system: Bcl-XL; conditions: 20 μM SFN, evident from the 2 hour time point
Description: as §2

[9] = system: SK-MEL 31 cells; assay: Trypan blue dye exclusion assay (cell proliferation / viability); conditions: for number of viable cells compared with control: 24 hour
[10] = system: caspase-9; conditions: 20 μM SFN, 24 hours
From the text: (§3) RPMI 1640, penicillin/streptomycin antibiotic mixture, and fetal bovine serum were from Gibco (Grand Island, N.Y.), propidium iodide and 4′,6′-diamidino-2-phenylindole-dihydrochloride (DAPI) were from Sigma (St Louis, Mo.). LIPOFECTAMINE 2000™ and G418 were purchased from Invitrogen (Carlsbad, Calif.). RNaseA was purchased from Promega (Madison, Wis.), and the reagents for electrophoresis were from Bio-Rad (Hercules, Calif.). Antibodies for Bcl-XL, Bak and cytochrome c were purchased from Santa Cruz Biotechnology (Santa Cruz, Calif.), antibodies specific for Bax, Smac/DIABLO, cleaved caspase-3 and cleaved caspase-8, cleaved caspase-9, cIAP1 and poly (ADP-ribose) polymerase (PARP) were purchased from Cell Signaling Technology (Beverly, Mass.), anti Bcl-2 antibody was purchased from Dakocytomation (Denmark), anti XIAP (X-linked inhibitor of apoptosis) antibody was purchased from BD PharMingen (San Diego, Calif.). Anti actin antibody was purchased from Oncogene Research Products (Boston, Mass.). The caspase inhibitors z-VAD fmk (general caspase inhibitor), z-IETD fmk (caspase-8 specific inhibitor) and z-LEHD fmk (caspase-9 specific inhibitor) were purchased from MP Biochemicals (Aurora, Ohio). The caspase-8 and caspase-9 colorimetric assay kits were purchased from R&D systems (Minneapolis, Minn.). Cytoplasmic histone associated DNA fragments detection ELISA kit was purchased from Roche Diagnostics GmbH (Mannheim, Germany). ProteoExtract™ Subcellular Proteome Extraction kit was purchased from Calbiochem (San Diego, Calif.).
(§4) Caspases are aspartate-specific cysteine proteases that play critical roles in apoptosis. Activation of caspases results in cleavage and inactivation of key cellular proteins, including the DNA repair enzyme PARP.

[11] = system: caspase-8; conditions: 20 μM SFN
From the text: as §3, §4

[12] = system: STAT3; conditions: administered orally to SCID mice; FIG. 3
[13] = system: SK-MEL37; conditions: different concentrations of SFN for 24, 48, or 72 h, FIG. 1
[14] = system: Cyclin B1, Cdk1, and Cdc25; conditions: SK-MEL31 cells, 20 μM SFN; FIG. 2
From the text: The blots were stripped and re-probed with anti-actin antibody to normalize for differences in protein loading.

[15] = system: PARP; conditions: 20 μM SFN, from 16 to 24 hour after treatment
Description: as §1
Cell lysate was cleared by centrifugation at 16000 rpm for 15 min. Lysate proteins were resolved by SDS-PAGE gel electrophoresis and transferred onto nitrocellulose membrane. The membrane was immersed into a phosphate buffered saline (PBS) solution containing 0.2% TWEEN® 20 and 5% (w/v) non-fat dry milk, and then incubated with desired primary antibody for 1 hour at room temperature. […]

[16] = mice, at the doses used
Description: (§5) Female athymic mice (6-week-old) were purchased from Taconic (Germantown, N.Y.). SK-MEL 31 cells were suspended in pharmacological grade normal saline, and 0.1 ml suspension containing 5×10^6 cells was injected subcutaneously on right flank of each mouse. Mice were randomized into two groups of 10 mice per group. Experimental animals were gavaged with SFN (5.6 μmol SFN in 0.1 ml normal saline) three times per week (Monday, Wednesday and Friday) beginning two weeks before tumor implantation. Control mice received an equal volume of the vehicle. Tumor volume was determined based on measurement of the length and width of the tumor, […]. Statistical significance of difference in tumor volume was assessed by Student's t-test. Upon the termination of the experiment, the tumor tissues were harvested and processed for analysis of apoptotic bodies by immunohistochemistry method. Tumor tissues were embedded in paraffin, sectioned (6 μm), de-paraffinized and processed for determination of apoptotic bodies using APOTAG® Plus Peroxidase In Situ Apoptosis detection kit (Intergen, NY) according to the manufacturer's instructions. Brown color apoptotic bodies in tumor sections of control and SFN-treated group were counted by two pathologists independently and blindly under a microscope at 400× magnification. Four randomly selected fields on each tumor section were counted for apoptotic bodies.

[17] = system: SK-MEL 31 xenografts
Description: as §5

SMILES: C[S+]([O-])CCCCN=C=S (centres unmarked) [SFN, 1-isothiocyanato-4-(methylsulfinyl)-butane]
- cell cycle distribution [1]: significantly increase of Sub-G0/G1 and G2M phase and decreased G0/G1 phase cell number
- increase in cytoplasmic histone associated DNA fragments compared with DMSO treated control ([2]; 5 μM SFN): ~4.7 fold
- increase in cytoplasmic histone associated DNA fragments compared with DMSO treated control ([2]; 10 μM SFN): ~11.4 fold
- condensed nucleus ratio ([2]; SFN 10 or 20 μM, FIG. 5C): increased significantly
- cytosolic levels of Smac and cytochrome c [3]: time-dependent increases
- cIAP1 and XIAP level [4]: consecutive cIAP1 and XIAP level decreases
- Bax and Bak protein level [5]: no significant level changes
- cleavage of procaspase-9, procaspase-8 and procaspase-3 [6]: resulted in cleavage
- Bcl-2 protein level [7]: No marked change
- Bcl-XL protein level [8]: down-regulation
- number of viable cells compared with control ([9]; 10 μM SFN): 58%
- number of viable cells compared to control ([9]; 10 μM SFN, 48 hour): 27%
- number of viable cells compared to control ([9]; 10 μM SFN, 72 hour): 19%
- number of viable cells compared with control ([9]; 20 μM SFN): 46%
- number of viable cells compared to control ([9]; 20 μM SFN, 48 hour): 23%
- number of viable cells compared to control ([9]; 20 μM SFN, 72 hour): 13%
- number of viable cells compared with control ([9]; 40 μM SFN): 26%
- number of viable cells compared to control ([9]; 40 μM SFN, 48 hour): 10%
- number of viable cells compared to control ([9]; 40 μM SFN, 72 hour): 10%
- melanoma cell growth in vitro (cell viability) ([9]; SK-MEL31, different concentrations of SFN for 24, 48, or 72 h, FIG. 1): inhibits melanoma cell growth in vitro
- increase in caspase-9 activity [10]: 148%
- caspase-8 activity increase compared with the control group ([11]; 16 hour): 45%
- caspase-8 activity increase compared with the control group ([11]; 24 hour): 73%
- STAT3 expression in human melanoma cells transplanted into mice [12]: lowered STAT3 expression
- melanoma cell growth in vitro (cell viability) [13]: inhibits melanoma cell growth in vitro
- melanoma cell Cyclin B1, Cdk1, and Cdc25 [14]: inhibits
- PARP cleavage [15]: obvious increase of PARP cleavage
- side effect (weight loss, organ weight difference) [16]: No side effect was observed
- reduction in tumor volume ([17]; 16 days after tumor implantation, versus control, p<0.01): 50%
- average tumor volume ([17]; 16 days after tumor implantation, gavage 5.6 μmol SFN three times per week): 154.4±95.4 mm^3
- tumor wet weight ([17]; oral SFN versus control, p<0.01): significant decrease
- count of apoptotic bodies in tumor sections versus controls (TUNEL assay) ([17]; oral SFN, p<0.05): ~4.4 fold
